Results as given in patent US10519177B2, “Heterocyclic compounds and uses thereof” (Plexxikon Inc., priority 2013, dated 2019).

The compounds below were run against BRD4-BD1 (44-164) (Homo sapiens (Human), UniProt O60885) (assay: Alphascreen binding assay BRD4-BD1). Details: BRD4(1) H4; read-out: Biochemical activity (IC50 μM) BRD4(1) H4.
Description: Binding of compounds of formula (I) with bromodomain 2, 3 4 was assessed using Alphascreen binding assay. The inhibition of the interaction between bromodomain and its acetylated target protein (Filippakopoulos P et al. 2012) was measured quantitatively using recombinant BRD proteins, an acetylated Histone 4 peptide and AlphaScreen™ technology. In absence of inhibition the BRD protein bound to AlphaScreen™ nickel chelate acceptor beads can interact with the acetylated Histone 4 peptide which is immobilized by the AlphaScreen™ Streptavidin coated beads. This interaction brings donor and acceptor beads in proximity. The close proximity allows the singlet oxygen produced by laser excitation of the donor beads to reach the acceptor beads and generate a luminescence signal.
Recombinant human bromodomains containing the N-terminal bromodomain (BRD2-BD1 (71-194), BRD3-BD1 (24-144) and BRD4-BD1 (44-164)) or dual bromodomains (BRD4-BD12 (1-477), BRD4-BD12 (1-472)) were prepared and purified as described in protein expression and purification session. The peptide is human Histone H41-21K5AcK8AcK12AcK16Ac-Biotin (Anaspec CA, USA).
Protocol for BRD2, BRD3 and BRD4 assay: All components are prepared in buffer composed of 50 mM HEPES pH 7.5, 100 mM NaCl, 0.01% bovine serum albumin (“BSA”), 0.01% Triton X-100, 2 mM dithiothreitol (“DTT”). 7 μL of Bromodomain protein and 7 μL of peptide are added to wells containing 1 μL of various concentrations of test compounds of formula (I) or DMSO vehicle in an Alphaplate (PerkinElmer GA, USA) and incubated for 1 hour at room temperature. 4 μL donor and acceptor bead mixture is then added with final concentrations of 7.5 μg/ml. 30 minutes after bead addition, Alpha signal is read on the Envision spectrometer (λEx 680 nm, λEm 520-620 nm). Final concentrations of bromodomain proteins and peptide are as shown below.
All data was normalized to the mean of 16 high and 16 low control wells on each plate. A four parameter curve fit of the following formula was then applied: Y=a+(b−a)/(1+(x/c)^d) Where ‘a’ is the minimum, ‘b’ is the maximum, ‘c’ is the pIC50 and ‘d’ is the Hill slope. Protein Expression and Purification
Recombinant human bromodomains containing the N-terminal bromodomain (BRD2-BD1 (71-194), BRD3-BD1 (24-144) and BRD4-BD1 (44-164)) or dual bromodomains (BRD4-BD12 (1-477), BRD4-BD12 (1-472)) were expressed in E. coli cells (in a modified pET vector) with an N-terminal six-His tag and purified using a combination of both IMAC (Ni-affinity) and size exclusion chromatography steps.
Recombinant BRD proteins were expressed using the E. coli strain BL21-CodonPlus (DE3) (Agilent Technologies CA, USA). Cells were grown in Terrific Broth (TB) media to an OD600 of 1.2 at 37° C. at which temperature was reduced to 25° C., protein was induced with 1.0 mM ispropyl-β-D-thiogalactopyranoside (“IPTG”) for 12-18 hours and harvested by centrifugation at 8000×g for 20 minutes. Cells were re-suspended in 0.1M K2PO4 pH 8.0, 250 mM NaCl, 10% Glycerol, 0.75% NP-40, 25 mM Imidazole, 5 mM beta-mercaptoethanol (“BME”) with 0.2 mg/ml Lysosyme, 2.0 mM phenylmethanesulfonyl fluoride (“PMSF”), 25 μg/ml DNAse I, incubated on ice for 30 minutes and lyzed with a cell disruptor (MicroFluidics MA, USA). The lysate was clarified by centrifugation at 20,000×g for 2 hours. The protein was captured with Ni-NTA resin (Life Technologies, USA). Contaminating proteins were washed off with 25 mM Tris-HCl pH 8.3, 250 mM NaCl, 12% Glycerol and 50 mM Imidazole. Following 3× wash steps, protein was eluted step wise using a 50 mM HEPES pH 7.5, 500 mM NaCl and 400 mM Imidazole. The protein was further purified using Gel Filtration column 26/600 Superdex 200 (GE Biosciences NJ, USA) in 50 mM HEPES pH 7.5, 250 mM NaCl. The protein was aliquoted and flash-frozen in liquid Nitrogen.

SMILES | IC50
COc1ncc(F)cc1C(OC)c1c[nH]c2ncc(-c3c(C)noc3C)cc12 (centres unmarked) [P-0011, 4-[3-[(5-fluoro-2-methoxy-3-pyridyl)-methoxy-methyl]-1H-pyrrolo[2,3-b]pyridin-5-yl]-3,5-dimethyl-isoxazole] | < 1 µM
Cc1noc(C)c1-c1cnc2[nH]cc(C(O)c3ccc(OCC(F)(F)F)nc3)c2c1 (centres unmarked) [P-0012, [5-(3,5-dimethylisoxazol-4-yl)-1H-pyrrolo[2,3-b]pyridin-3-yl]-[6-(2,2,2-trifluoroethoxy)-3-pyridyl]methanol] | < 1 µM
COC(c1ccc(C(F)(F)F)nc1)c1c[nH]c2ncc(-c3c(C)noc3C)cc12 (centres unmarked) [P-0013, 4-[3-[methoxy-[6-(trifluoromethyl)-3-pyridyl]methyl]-1H-pyrrolo[2,3-b]pyridin-5-yl]-3,5-dimethyl-isoxazole] | < 1 µM
COC(c1c(F)cccc1Cl)c1c[nH]c2ncc(-c3c(C)noc3C)cc12 (centres unmarked) [P-0014, 4-[3[(2-chloro-6-fluoro-phenyl)-methoxy-methyl]-1H-pyrrolo[2,3-b]pyridin-5-yl]-3,5-dimethyl-isoxazole] | < 1 µM
Cc1noc(C)c1-c1cnc2[nH]cc(C(O)c3ccccc3Cl)c2c1 (centres unmarked) [P-0019, (2-chlorophenyl)-[5-(3,5-dimethylisoxazol-4-yl)-1H-pyrrolo[2,3-b]pyridin-3-yl]methanol] | < 1 µM
COC(c1ccccc1Cl)c1c[nH]c2ncc(-c3c(C)noc3C)cc12 (centres unmarked) [P-0020, 4-[3-[(2-chlorophenyl)-methoxy-methyl]-1H-pyrrolo[2,3-b]pyridin-5-yl]-3,5-dimethyl-isoxazole] | < 1 µM
Cc1noc(C)c1-c1cnc2[nH]cc(C(O)c3c(F)cccc3Cl)c2c1 (centres unmarked) [P-0021, (2-chloro-6-fluoro-phenyl)-[5-(3,5-dimethylisoxazol-4-yl)-1H-pyrrolo[2,3-b]pyridin-3-yl]methanol] | < 1 µM
COc1ncc(F)cc1C(O)c1c[nH]c2ncc(-c3c(C)noc3C)cc12 (centres unmarked) [P-0022, [5-(3,5-dimethylisoxazol-4-yl)-1H-pyrrolo[2,3-b]pyridin-3-yl]-(5-fluoro-2-methoxy-3-pyridyl)methanol] | < 1 µM
Cc1noc(C)c1-c1cnc2[nH]cc(C3(O)CCC(F)(F)CC3)c2c1 [P-0024, 1-[5-(3,5-dimethylisoxazol-4-yl)-1H-pyrrolo[2,3-b]pyridin-3-yl]-4,4-difluoro-cyclohexanol] | < 1 µM
COc1ncc(C(O)c2c[nH]c3ncc(-c4c(C)noc4C)cc23)cc1F (centres unmarked) [P-0025, [5-(3,5-dimethylisoxazol-4-yl)-1H-pyrrolo[2,3-b]pyridin-3-yl]-(5-fluoro-6-methoxy-3-pyridyl)methanol] | < 1 µM
Cc1noc(C)c1-c1cnc2[nH]cc(Cc3ccccc3Cl)c2c1 [P-0026, 4-[3-[(2-chlorophenyl)methyl]-1H-pyrrolo[2,3-b]pyridin-5-yl]-3,5-dimethyl-isoxazole] | < 1 µM
Cc1noc(C)c1-c1cnc2[nH]cc(Cc3c(F)cccc3Cl)c2c1 [P-0027, 4-[3-[(2-chloro-6-fluoro-phenyl)methyl]-1H-pyrrolo[2,3-b]pyridin-5-yl]-3,5-dimethyl-isoxazole] | < 1 µM
COc1ncc(F)cc1Cc1c[nH]c2ncc(-c3c(C)noc3C)cc12 [P-0028, 4-[3-[(5-fluoro-2-methoxy-3-pyridyl)methyl)-1H-pyrrolo[2,3-b]pyridin-5-yl]-3,5-dimethyl-isoxazole] | < 1 µM
Cc1noc(C)c1-c1cnc2[nH]cc(C3=CCC(F)(F)CC3)c2c1 [P-0029, 4-[3-(4,4-difluorocyclo-hexen-1-yl)-1H-pyrrolo[2,3-b]pyridin-5-yl]-3,5-dimethyl-isoxazole] | < 1 µM
Cc1noc(C)c1-c1cnc2[nH]cc(C(O)C3CCC(F)(F)CC3)c2c1 (centres unmarked) [P-0030, (4,4-difluorocyclohexyl)-[5-(3,5-dimethylisoxazol-4-yl)-1H-pyrrolo[2,3-b]pyridin-3-yl]methanol] | < 1 µM
Cc1noc(C)c1-c1cnc2[nH]cc(C(=O)C3CCC(F)(F)CC3)c2c1 [P-0031, (4,4-difluorocyclohexyl)-[5-(3,5-dimethylisoxazol-4-yl)-1H-pyrrolo[2,3-b]pyridin-3-yl]methanone] | < 1 µM
Cc1noc(C)c1-c1cnc2[nH]cc(CC3CCC(F)(F)CC3)c2c1 [P-0034, 4-[3-[(4,4-difluoro-cyclohexyl)methyl]-1H-pyrrolo[2,3-b]pyridin-5-yl]-3,5-dimethyl-isoxazole] | < 1 µM
CCCCS(=O)(=O)n1ccc2ncc(-c3c(C)noc3C)cc21 [P-0036, 4-(1-butylsulfonylpyrrolo[3,2-b]pyridin-6-yl)-3,5-dimethyl-isoxazole] | < 1 µM
Cc1noc(C)c1-c1cnc2ccn(S(=O)(=O)C3CCCC3)c2c1 [P-0037, 4-(1-cyclopentyl-sulfonylpyrrolo[3,2-b]pyridin-6-yl)-3,5-dimethyl-isoxazole] | < 1 µM
Cc1noc(C)c1-c1cnc2ccn(S(=O)(=O)c3ccccc3)c2c1 [P-0038, 4-[1-(benzenesulfonyl)pyrrolo[3,2-b]pyridin-6-yl]-3,5-dimethyl-isoxazole] | < 1 µM
Cc1noc(C)c1-c1cnc2[nH]cc(C(O)c3cccc(OC(F)(F)F)c3)c2c1 (centres unmarked) [P-0039, [5-(3,5-dimethylisoxazol-4-yl)-1H-pyrrolo[2,3-b]pyridin-3-yl]-[3-(trifluoromethoxy)phenyl]methanol] | < 1 µM
Cc1noc(C)c1-c1cnc2[nH]cc(C(O)c3ccccc3OC(F)F)c2c1 (centres unmarked) [P-0040, [2-(difluoromethoxy)phenyl]-[5-(3,5-dimethylisoxazol-4-yl)-1H-pyrrolo[2,3-b]pyridin-3-yl]methanol] | < 1 µM
Cc1noc(C)c1-c1cnc2[nH]cc(C(O)c3cccc4c3OC(F)(F)O4)c2c1 (centres unmarked) [P-0041, (2,2-difluoro-1,3-benzodioxol-4-yl)-[5-(3,5-dimethylisoxazol-4-yl)-1H-pyrrolo[2,3-b]pyridin-3-yl]methanol] | < 1 µM
CCc1[nH]c2ncc(-c3c(C)noc3C)cc2c1C(O)c1ccccc1Cl (centres unmarked) [P-0042, (2-chlorophenyl)-[5-(3,5-dimethylisoxazol-4-yl)-2-ethyl-1H-pyrrolo[2,3-b]pyridin-3-yl]methanol] | < 1 µM
CCc1[nH]c2ncc(-c3c(C)noc3C)cc2c1C(O)c1cccc(OC(F)(F)F)c1 (centres unmarked) [P-0043, [5-(3,5-dimethylisoxazol-4-yl)-2-ethyl-1H-pyrrolo[2,3-b]pyridin-3-yl]-[3-(trifluoromethoxy)phenyl]methanol] | < 1 µM
CCc1[nH]c2ncc(-c3c(C)noc3C)cc2c1C(O)C1CCC(F)(F)CC1 (centres unmarked) [P-0044, (4,4-difluorocyclohexyl)-[5-(3,5-dimethylisoxazol-4-yl)-2-ethyl-1H-pyrrolo[2,3-b]pyridin-3-yl]methanol] | < 1 µM
CCc1[nH]c2ncc(-c3c(C)noc3C)cc2c1C(OC)C1CCC(F)(F)CC1 (centres unmarked) [P-0045, 4-[3-[(4,4-difluorocyclohexyl)-methoxy-methyl]-2-ethyl-1H-pyrrolo[2,3-b]pyridin-5-yl]-3,5-dimethyl-isoxazole] | < 1 µM
Cc1noc(C)c1-c1cnc2[nH]cc(Cc3ccccc3OC(F)F)c2c1 [P-0047, 4-[3-[[2-(difluoro-methoxy)phenyl]methyl]-1H-pyrrolo[2,3-b]pyridin-5-yl]-3,5-dimethyl-isoxazole] | < 1 µM
Cc1noc(C)c1-c1cnc2[nH]cc(Cc3cccc4c3OC(F)(F)O4)c2c1 [P-0048, 4-[3-[(2,2-difluoro-1,3-benzodioxol-4-yl)methyl]-1H-pyrrolo[2,3-b]pyridin-5-yl]-3,5-dimethyl-isoxazole] | < 1 µM
